pEC50: −log10 of the molar value.
What was measured:
[1] = tested on: primary human hepatocytes (PHH); test: Western blot of γH2AX and p53 in primary human hepatocytes; conditions: 24 h; for γH2AX induction vs. control: selected concentrations
Description: (§1) Both cell lines were cultivated in DMEM high glucose without pyruvate (Gibco, Thermo Fisher Scientific, Waltham MA, USA) supplemented with 10% foetal calf serum (FCS, Pan-Biotech, Aidenbach, Germany) and 1% penicillin/streptomycin (Gibco, Thermo Fisher Scientific, Waltham MA, USA). […] Cryopreserved PHH (BioIVT, Brussels, Belgium) pooled from 10 donors (5 × females, 5 × males) were handled according to the protocol of the manufacturer. […] Cells were then diluted, plated for the respective assays in collagen-coated plates, and allowed to adhere for 3 h.
To this end, 5 × 10^5 cells were seeded in 3.5-cm dishes to adhere overnight. […] Proteins were separated by SDS-PAGE followed by the transfer onto a nitrocellulose membrane using the wet blot method. The successful transfer was confirmed by Ponceau S staining of the membrane before blocking with 5% non-fat dry milk in Tris-buffered saline with Tween-20 (MP-TBS-T). Subsequently, the membrane was incubated with the respective primary antibodies overnight at 4 °C. The membranes were washed three times for 5 min with TBS-T before incubating with the respective secondary antibody coupled with horseradish peroxidase. The detection was carried out using the Western Lightning Plus-ECL reagent (Perkin Elmer, Waltham MA, USA) with the c300 chemiluminescence imager (Azure Biosystems, Dublin CA, USA). The used primary and secondary antibodies are detailed in supplementary Table S3.

[2] = tested on: primary human hepatocytes (PHH); test: Resazurin reduction assay (cytotoxicity) in PHH; conditions: 24 h
Description: as §1
PHH were seeded in 96-well plates precoated with collagen at a cell density of 7 × 10^4/well, left to adhere for 3 h, and treated as described above for 24 h. After treatment, medium was discarded and replaced by resazurin reaction solution containing 44 µM resazurin in NaCl/Pi buffer (1.1 mM KH2PO4, 154 mM NaCl, and 3.7 mM Na2HPO4∙H2O) diluted 1:10 in medium without FCS and P/S. The cells were then incubated for 1.5 h and fluorescence was measured using a Spark® microplate reader (Tecan, Männedorf, Switzerland) with an excitation at 544 nm and emission at 590 nm. The cell viability was calculated relative to the negative control (set to 100%).

HepG2 cells = tested on: HepG2 cells
Description: (§2) The CBMN assay was performed according to the OECD test guideline #487. Therefore, 2 × 10^5 cells were seeded in 3.5 cm dishes and allowed to adhere for 24 h. […] After the 24 h treatment, the medium was discarded and the cells were incubated with fresh medium, containing 6 µg/mL cytochalasin B as cytokinesis inhibitor. The cells were then left to grow for 72 h, allowing for 1.5–2 × cell cycles. Subsequently, the cells were rinsed with PBS and fixed with ice-cold methanol for 10 min at –20 °C. Cells were washed and embedded with Vectashield® containing DAPI (Vector Labs, Burlingame, CA, USA). The samples were analysed with a Zeiss Axio Observer 7 microscope equipped with an Axiocam 305 mono and a 63 × oil immersion objective (plan-apochromat 63x/1.40 DIC M27) using ZEN Software 3.2. 500 binucleated cells per sample were analysed for micronuclei formation.
(§3) As benchmark response (BMR) for all concentration–response curves (adducts, micronuclei), a 2.0-fold increase vs. solvent control was used (BMC100, critical effect size = 1). The determined BMC100 and the corresponding upper and lower boundary (BMCU and BMCL, respectively) of the 90% confidence interval (CI) were used for potency comparison.

HepG2-CYP1A2 cells = tested on: HepG2-CYP1A2 cells
Description: as §2, §3

HepaRG cells = tested on: HepaRG cells; parameters: method as in Le Hegarat et al. 2014; conditions: up to 2 mM ES for 24 h; ref Le Hegarat et al. 2014; cited from earlier work
[3] = endpoint MN (CBMN), BMR 2.0-fold increase
[4] = endpoint MN (CBMN), BMR 2.0-fold increase, 90% CI
[5] = range stated for both ES and 1′OH-ES

Row | SMILES | p53 levels [1] | γH2AX induction vs. control [1] | pEC50 ([2]; read-out: EC50 (cell viability)) | MN induction vs solvent control (CBMN) (HepG2 cells; 50 µM 1′OH-ES (top concentration)) | concentration at which the increase in MN starts (CBMN) (HepG2 cells; 24 h + 72 h recovery) | BMC100 (HepG2 cells; [3]) | BMCL (HepG2 cells; [4]) | BMCU (HepG2 cells; [4]) | BMC for clastogenic response vs BMC for DNA adduct formation (HepG2 cells; [5]) | viability ([2]; test concentrations up to 5 mM) | MN induction vs solvent control (CBMN) (HepG2-CYP1A2 cells; 2000 µM ES (top concentration)) | concentration at which the increase in MN starts (CBMN) (HepG2-CYP1A2 cells; 24 h + 72 h recovery) | concentrations at which clastogenicity was observed (HepG2-CYP1A2 cells; CBMN and MN flow assay) | BMC100 (HepG2-CYP1A2 cells; [3]) | BMCL (HepG2-CYP1A2 cells; [4]) | BMCU (HepG2-CYP1A2 cells; [4]) | BMC for clastogenic response vs BMC for DNA adduct formation (HepG2-CYP1A2 cells; [5]) | DNA strand breaks (comet assay) outcome (HepaRG cells)
1 | C=CC(O)c1ccc(OC)cc1 (stereo not shown) [1′OH-ES, 1′-hydroxyestragole] | slightly declined | threefold | 3.97 | roughly a twofold induction | 5 µM | 32.0 µM | 21.0 µM | 106 µM | 12–17 fold | – | – | – | – | – | – | – | – | –
2 | C=CCc1ccc(OC)cc1 [ES, estragole] | – | 1.4 fold | – | – | – | – | – | – | – | did not affect viability | roughly a twofold induction | 500 µM | ≥ 1000 µM | 1116 µM | 555 µM | 1755 µM | 12–17 fold | negative outcome

From paper PMC12408683 (Archives of Toxicology, 2025)
